In one experiment the target is T1, human orexin-1 receptor (Homo sapiens, UniProt O43613).
T1 construct: expressed in transfected cells; host or cells: CHO cells (G418 selection)
T1 sequence (O43613 1-425): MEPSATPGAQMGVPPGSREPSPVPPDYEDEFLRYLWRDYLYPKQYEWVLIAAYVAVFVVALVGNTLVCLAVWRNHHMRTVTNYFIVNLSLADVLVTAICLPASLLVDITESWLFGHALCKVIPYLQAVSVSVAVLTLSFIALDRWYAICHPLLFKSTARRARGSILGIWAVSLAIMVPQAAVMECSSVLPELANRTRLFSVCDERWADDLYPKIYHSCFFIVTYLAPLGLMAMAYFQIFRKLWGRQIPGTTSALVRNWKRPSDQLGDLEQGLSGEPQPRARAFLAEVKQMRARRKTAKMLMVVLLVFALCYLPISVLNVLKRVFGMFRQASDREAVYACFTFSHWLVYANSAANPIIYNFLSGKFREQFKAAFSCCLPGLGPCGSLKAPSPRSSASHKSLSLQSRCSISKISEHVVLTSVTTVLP
Description: Intracellular calcium measurements (FLIPR), OX1 receptor antagonist activity. Conditions: CHO cells expressing human orexin-1 receptor; 10 nM orexin-A as agonist; fluo-3 calcium signal. The class given is cell-based. The procedure:
(§1) The OX1 and OX2 receptor antagonist activities of the compounds of general formula (I) were determined in accordance with the following experimental method.
(§2) Intracellular Calcium Measurements
(§3) Chinese hamster ovary (CHO) cells expressing the human orexin-1 receptor and the human orexin-2 receptor, respectively, were grown in culture medium (Ham F-12 with L Glutamine) containing 300 μg/ml G418, 100 U/ml penicillin, 100 μg/ml streptomycin and 10% inactivated foetal calf serum (FCS).
(§4) The cells were seeded at 80'000 cells/well into 96-well black clear bottom sterile plates (Costar) which had been precoated with 1% gelatine in Hanks' Balanced Salt Solution (HBSS). All reagents were from Gibco BRL.
(§5) The seeded plates were incubated overnight at 37° C. in 5% CO2.
(§6) Human orexin-A as an agonist was prepared as 1 mM stock solution in methanol:water (1:1), diluted in HBSS containing 0.1% BSA and 2 mM HEPES for use in the assay at a final concentration of 10 nM.
(§7) Antagonists were prepared as 10 mM stock solution in DMSO, then diluted in 96-well plates, first in DMSO, then in HBSS containing 0.1% bovine serum albumin (BSA) and 2 mM HEPES.
(§8) On the day of the assay, 100 μl of loading medium (HBSS containing 1% FCS, 2 mM HEPES, 5 mM probenecid (Sigma) and 3 μM of the fluorescent calcium indicator fluo-3 AM (1 mM stock solution in DMSO with 10% pluronic acid Molecular Probes)) was added to each well.
(§9) The 96-well plates were incubated for 60 min at 37° C. in 5% CO2. The loading solution was then aspirated and cells were washed 3 times with 200 μl HBSS containing 2.5 mM probenecid, 0.1% BSA, 2 mM HEPES. 100 μl of that same buffer was left in each well.
(§10) Within the Fluorescent Imaging Plate Reader (FLIPR, Molecular Devices), antagonists were added to the plate in a volume of 50 μl, incubated for 20 min and finally 100 μl of agonist was added. Fluorescence was measured for each well at 1 second intervals, and the height of each fluorescence peak was compared to the height of the fluorescence peak induced by 10 nM orexin-A with buffer in place of antagonist. For each antagonist; IC50 values (the concentration of compound needed to inhibit 50% of the agonistic response) were determined.
On the technique in general: A change in cytosolic calcium serves as a functional read-out for many receptors and channels.

Another experiment concerns the target T2, human orexin-2 receptor (Homo sapiens, UniProt O43614).
T2 construct: expressed in transfected cells; host or cells: CHO cells (G418 selection)
T2 sequence (O43614 1-444): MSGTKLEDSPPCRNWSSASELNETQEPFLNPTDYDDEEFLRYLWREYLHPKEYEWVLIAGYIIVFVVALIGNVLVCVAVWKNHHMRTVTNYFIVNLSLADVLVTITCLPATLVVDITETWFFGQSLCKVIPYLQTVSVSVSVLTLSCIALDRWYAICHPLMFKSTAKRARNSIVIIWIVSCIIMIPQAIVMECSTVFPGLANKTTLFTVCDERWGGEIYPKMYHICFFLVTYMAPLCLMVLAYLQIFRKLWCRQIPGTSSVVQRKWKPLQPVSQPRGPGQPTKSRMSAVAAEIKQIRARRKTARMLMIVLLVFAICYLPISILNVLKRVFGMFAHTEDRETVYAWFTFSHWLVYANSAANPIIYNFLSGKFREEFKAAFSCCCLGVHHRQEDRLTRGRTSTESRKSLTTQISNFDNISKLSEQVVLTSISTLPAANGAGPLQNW
Description: Intracellular calcium measurements (FLIPR), OX2 receptor antagonist activity. The class given is cell-based. Conditions: CHO cells expressing human orexin-2 receptor; 10 nM orexin-A as agonist; fluo-3 calcium signal. The procedure:
as §1, §2, §3, §4, §5, §6, §7, §8, §9, §10

SMILES strings stand for the structures.

These results are taken from patent US7192950B2, “Benzazepines and related heterocyclic derivatives which are useful as orexin receptor antagonists” (Actelion Pharmaceuticals, Ltd., priority 2000, dated 2007).

Regarding `COc1ccc(CC2c3cc(OC)c(OC)cc3CCCN2C(C(=O)NCc2nc3ccccc3[nH]2)c2ccccc2)cc1OC` (centres unmarked) [Example 35, N-(1H-Benzoimidazol-2-ylmethyl)-2-[1-(3,4-dimethoxy-benzyl)-7,8-dimethoxy-1,3,4,5-tetrahydro-benzo[c]azepin-2-yl]-2-phenyl-acetamide], the IC50 turned out to be 32 nM on human orexin-1 receptor and 7040 nM on human orexin-2 receptor.
On the same counts, the results for `COc1ccc(CC2c3cc(OC)c(OC)cc3CCCN2C(C(=O)NC2Cc3ccccc3C2)c2ccccc2)cc1OC` (centres unmarked) [Example 20, 2-[1-(3,4-Dimethoxy-benzyl)-7,8-dimethoxy-1,3,4,5-tetrahydro-benzo[c]azepin-2-yl]-N-indan-2-yl-2-phenyl-acetamide] are 23 nM and 231 nM.
On the same counts, the results for `COc1ccc(CC2c3cc(OC)c(OC)cc3CCCN2C(C(=O)NCc2ccc3c(c2)OCO3)c2ccccc2)cc1OC` (centres unmarked) [Example 23, N-Benzo[1,3]dioxol-5-ylmethyl-2-[1-(3,4-dimethoxy-benzyl)-7,8-dimethoxy-1,3,4,5-tetrahydro-benzo[c]azepin-2-yl]-2-phenyl-acetamide] are 21 nM and 189 nM.
On the same counts, the results for `COc1ccc(CC2c3cc(OC)c(OC)cc3CCCN2C(C(=O)NCc2ccco2)c2ccccc2)cc1OC` (centres unmarked) [Example 25, 2-[1-(3,4-Dimethoxy-benzyl)-7,8-dimethoxy-1,3,4,5-tetrahydro-benzo[c]azepin-2-yl]-N-furan-2-ylmethyl-2-phenyl-acetamide] are 41 nM and 241 nM.
For `COc1ccc(CC2c3cc(OC)c(OC)cc3CCCN2CC(=O)NC2CCc3ccccc32)cc1OC` (centres unmarked) [Example 9, 2-[1-(3,4-Dimethoxy-benzyl)-7,8-dimethoxy-1,3,4,5-tetrahydro-benzo[c]azepin-2-yl]-N-indan-1-yl-acetamide], the IC50 on human orexin-1 receptor came to 23 nM; on human orexin-2 receptor, 1240 nM.
On to `COc1ccc(CC2c3cc(OC)c(OC)cc3CCCN2CC(=O)NC2Cc3ccccc3C2)cc1OC` (centres unmarked) [Example 3, 2-[1-(3,4-Dimethoxy-benzyl)-7,8-dimethoxy-1,3,4,5-tetrahydro-benzo[c]azepin-2-yl]-N-indan-2-yl-acetamide], for which the IC50 on human orexin-1 receptor is 99 nM; at human orexin-2 receptor, greater than 10000 nM.
On the same counts, the results for `COc1ccc(CC2c3cc(OC(C)C)c(OC)cc3CCCN2CC(=O)NC2CCc3ccccc32)cc1OC` (centres unmarked) [Example 68, 2-[1-(3,4-Dimethoxy-benzyl)-8-isopropoxy-7-methoxy-1,3,4,5-tetrahydro-benzo[c]azepin-2-yl]-N-indan-1-yl-acetamide] are 12 nM and 174 nM.
On the same counts, the results for `COC(=O)CCNC(=O)C(c1ccccc1)N1CCCc2cc(OC)c(OC)cc2C1Cc1ccc(OC)c(OC)c1` (centres unmarked) [Example 34, 3-{2-[1-(3,4-Dimethoxy-benzyl)-7,8-dimethoxy-1,3,4,5-tetrahydro-benzo[c]azepin-2-yl]-2-phenyl-acetylamino}-propionic acid methyl ester] are 41 nM and 9190 nM.
On the same counts, the results for `COc1ccc(CC2c3cc(OCC(F)F)c(OC)cc3CCCN2CC(=O)NC2CCc3ccccc32)cc1OC` (centres unmarked) [Example 69, 2-[8-(2,2-Difluoro-ethoxy)-1-(3,4-dimethoxy-benzyl)-7-methoxy-1,3,4,5-tetrahydro-benzo[c]azepin-2-yl]-N-indan-1-yl-acetamide] are 9 nM and 349 nM.
For the compound `COc1ccc(CC2c3cc(OC)c(OC)cc3OCCN2CC(=O)NC2CCc3ccccc32)cc1OC` (racemic) [Example 5, 2-[5-(3,4-Dimethoxy-benzyl)-7,8-dimethoxy-2,3-dihydro-5H-benzo[f][1,4]oxazepin-4-yl]-N-indan-1-yl-acetamide], the figures for the IC50 at human orexin-1 receptor and at human orexin-2 receptor were 64 nM and 7900 nM, respectively.

What is called IC50 is the concentration that gives 50% inhibition.
